Laboratory results taken from patent US9586896B2, “Nitroxyl donors with improved therapeutic index” (Cardioxyl Pharmaceuticals, Inc., priority 2013, dated 2017).

Columns and labels:
dogs = assay: Microscopic pathology of the vasculature, canine implanted central catheter 72 hour model; type: in vivo, beagle dogs; conditions: edema, vascular/perivascular inflammation, hemorrhage, molar equivalent dose rates to CXL-1020
Experimental: Confirmation was obtained through evaluating the nitroxyl donors through detailed histopathology of the vasculature at the site of insertion of into the femoral vein (15 cm distal to the catheter tip), along the catheter track to the catheter tip, and past the tip downstream 20 cm.
A composite lab score was calculated from the sum of these findings scores. In FIG. 5, the cumulative histology composite lab score ranges from 0-2 (low severity) to 11-12 (high severity). […] The NOAEL values determined based on these microscopic pathology markers for a series of nitroxyl donors, expressed in molar equivalent dose rates (μg/kg/min) to CXL-1020, are provided in Table 8.

[1] = In vitro stability (half-life) in human plasma; type: in vitro ADME; conditions: male, pH 7.4, human plasma pH 7.4, anticoagulant, 37° C., read-out: T1/2 (minutes) Human
Experimental: (§1) Compound (1), compound (2), and CXL-1020 were tested for their stability in plasma. The assay system comprised (i) PBS, or plasma from rat, dog or human (at least 3 donors, male, pooled) at pH 7.4, and (ii) for tests conducted in plasma, an anticoagulant (sodium heparin or sodium citrate). Each test compound (5 μM) was incubated in PBS or plasma at 37° C. on a THERMOMIXER® with shaking Three samples (n=3) were taken at each of seven sampling time points: 0, 10, 30, 60, 90, 180 and 360 minutes. The samples were immediately combined with 3 volumes (i.e., 3 times the volume of PBS or plasma) of acetonitrile containing 1% formic acid and an internal standard to terminate the reaction. AB SCIEX API 3000 LC-MS/MS analysis of the test compounds was performed without a standard curve. Half-lives (T1/2) of the test compounds were determined from graphs of the percent remaining values using the peak area response ratio.

[2] = system: heart failure canines (tachycardia-pacing model); assay: Hemodynamic efficacy in heart failure canines (tachycardia-pacing model); type: in vivo, beagle dogs; conditions: for hemodynamic activity relative to CXL-1020: both normal and failing canine models; for hemodynamic effects produced: normal and failing canine models, FIGS. 1-2
Experimental: The cardiovascular effects of nitroxyl donors were examined by means of pressure-volume (PV) curve (loops) analysis in conscious, sling-restrained beagle dogs. Animals were allowed free access to drinking water and a commercial canine diet under standard laboratory conditions. Fluorescent lighting was provided via an automatic timer for approximately 12 hours per day. On occasion, the dark cycle was interrupted intermittently due to study-related activities. Temperature and humidity were monitored and recorded daily and maintained to the maximum extent possible between 64° F. and 84° F. and 30% to 70%, respectively. The dogs were acclimated for a period of at least 1 week prior to surgery. Following surgery and recovery the animals were acclimated to sling restraint for a period up to 4.5 hours. Animals were fasted overnight prior to surgery.
Once a stable (surgical) plane of anesthesia had been established, a left-thoracotomy was performed (under strict aseptic conditions) and each animal was chronically instrumented with sono-micrometry crystals providing left-ventricular (LV) dimensions/volume. Additionally, a fluid-filled catheter and a solid-state monometer were placed in the left ventricle for pressure monitoring. A fluid-filled catheter was placed in the right ventricle (RV) and the aorta (Ao) for pressure monitoring/test article administration. […] The catheters/wires were aseptically tunneled and externalized between the scapulae. Over the course of the study, fluid-filled catheters were regularly (at least once weekly) flushed with a locking-solution in order to prevent both clotting and bacterial growth (2-3 mL of Taurolidine-Citrate solution, TCS-04; Access Technologies).
Following the cardiovascular instrumentation, the right jugular vein was carefully exposed and cannulated with a bipolar pacing lead/catheter (CAPSUREFIX® Novus; Medtronic). Under fluoroscopic guidance, this pacing lead was advanced normograde into the right ventricle and actively affixed (screwed in) to the apical endocardium. The proximal end of the lead was secured to the pacing device (Kappa 900; Medtronic). Subsequently, the pacemaker was placed/secured in a subcutaneous pocket in the neck.
Following a recovery from surgery and/or sufficient washout period from dosing with a nitroxyl donor, animals were subjected to a 3-week overdrive pacing (210 ppm) protocol aimed to trigger left-ventricular dysfunction/remodeling consistent with the heart failure syndrome. In short, via the implanted pacemaker/right-ventricular lead, the ventricle(s) was asynchronously and continuously paced at 210 beats per minute (bpm). Left-ventricular remodeling (and heart failure induction) were confirmed by both echocardiographic (e.g., ejection fraction (EF)) decrease from about 60% to a target of about 35%, left ventricular (LV) dilatation) and neuro-humoral (e.g., N-terminal pro-brain natriuretic peptide (NT proBNP) elevation to greater than 1800 pM/L from a baseline of about 300 pM/L) changes after approximately 3 weeks of pacing. Echocardiographs and blood samples were collected in the absence of pacing (for at least 15 min).
The animals (normal or heart failure) were studied during treatment with both vehicle (control) and a nitroxyl donor (either CXL-1020, a compound of formula (1) or a compound of formula (2)). At each dosing period, conscious sling-restrained animals were continuously monitored for up to two to three hours. Following hemodynamic stabilization, infusion of the vehicle was started. […] Infusion of the vehicle was continued and after 30 min another (baseline) set of hemodynamic data was collected. Following collection of baseline hemodynamic data, infusion of the nitroxyl donor compound being tested was initiated and derived hemodynamic/functional parameters were obtained/performed at up to four (4) time points selected from the following: at 30, 60, 90, 120, and 180 minutes after the onset of vehicle/test compound infusion. […]

[3] = In vitro stability (half-life) in PBS pH 7.4; type: physicochemical; conditions: pH 7.4, aerated PBS pH 7.4, 37° C., read-out: T1/2 (minutes) PBS
Experimental: as §1

[4] = heart failure canines, i.v. infusion, dose rate 75 (μmol/kg/min [sic])

| Compound | NOAEL (μg/kg/min), microscopic pathology markers (dogs) | half-life at 5 μM [1] | hemodynamic activity relative to CXL-1020 [2] | hemodynamic effects produced [2] | half-life at 5 μM [3] | HR (% Change from Baseline) ([2]; heart failure canines, i.v. infusion, dose rate 100 (μmol/kg/min [sic])) | EDV (% Change from Baseline) [2, 4] | ESP (% Change from Baseline) [2, 4] | ESPVR (% Change from Baseline) [2, 4] | HR (% Change from Baseline) [2, 4] | PRSW (% Change from Baseline) [2, 4] | SW (% Change from Baseline) [2, 4] | Tau (% Change from Baseline) [2, 4] |
| --- | --- | --- | --- | --- | --- | --- | --- | --- | --- | --- | --- | --- | --- |
| CS(=O)(=O)c1cccc(S(=O)(=O)NO)c1 [(2), N-Hydroxy-3-methanesulfonylbenzene-1-sulfonamide] | ≧180 μg/kg/min | ~37 min | comparable hemodynamic activity to CXL-1020 | significant enhancement of inotropy and lusitropy, and modest reductions in blood pressure | ~50 min |  |  |  |  |  |  |  |  |
| CS(=O)(=O)c1ccccc1S(=O)(=O)NO [CXL-1020, N-hydroxy-2-methanesulfonylbenzene-1-sulfonamide] | <3 μg/kg/min | 2 min |  |  | 2 min | −0.23 ± 2.25% |  |  |  |  |  |  |  |
| Cc1ccc(S(=O)(=O)NO)o1 [Compound (1), N-Hydroxy-5-methylfuran-2-sulfonamide] | ≧180 μg/kg/min | ~65 min | comparable hemodynamic activity to CXL-1020 | significant enhancement of inotropy and lusitropy, and modest reductions in blood pressure | ~68 min |  | −9 ± 2% | −17 ± 1% | 29 ± 1% | −6 ± 2% | 22 ± 1% | −9 ± 2% | −16 ± 4% |
